# Bridge positions count the residues as written; N and C are the ends. Square brackets hold non-standard residues; d marks the D form. Peptide text beside a SMILES is read from it. hArg = N=C(N)NCCCC[C@H](N)C(=O)O; Mpa = O=C(O)CCS
# Legend:
# [1] = system: aggregation induced by ADP; assay: Aggregation induced by ADP; format: cell-based; settings: 100 μM
# [2] = system: preformed thrombi on collagen coated surface; assay: Real time thrombosis perfusion chamber assay, destabilization of preformed thrombi; format: cell-based; settings: for effect on preformed thrombi, aspirin background: aspirinated blood over preformed aspirinated thrombi; for mean slope after first perfusion (mSAFP), aspirin background: aspirinated blood, aspirin alone = saline control, eptifibatide; for mean slope after first perfusion (mSAFP), aspirin background / mean slope after first perfusion (mSAFP): 2-MeSAMP 100 μM; for mean slope after first perfusion (mSAFP): untreated blood 210 seconds at 1500/sec, then blood treated with agent, eptifibatide 2.4 μM, Ifetroban 0.3 μM; for effect on preformed thrombi: untreated blood background, second perfusion with agent
# Experimental: Evaluation of the ability of thromboxane receptor (TP) antagonists to destabilize preformed thrombi was performed as followed in the real time thrombosis perfusion chamber assay (monitoring of fluorescently labeled platelets onto collagen coated surface). Untreated samples of blood were first perfused through the collagen-coated perfusion chamber for 210 seconds at 1500/sec. […] In order to evaluate a possible role for PGD2 in mediating thrombus destabilization, aspirinated blood was perfused in presence of PDG2 over preformed aspirinated thrombi.
# P2Y12 receptor = biological target: T1, P2Y12 receptor (Homo sapiens, UniProt Q9H244); assay: P2Y12 receptor blockade in vitro in whole blood; format: cell-based; settings: 5 μM
# T1 construct: endogenous in cells; host or cells: platelets in citrate-anticoagulated whole blood of blood donors
# T1 sequence (Q9H244 whole entry): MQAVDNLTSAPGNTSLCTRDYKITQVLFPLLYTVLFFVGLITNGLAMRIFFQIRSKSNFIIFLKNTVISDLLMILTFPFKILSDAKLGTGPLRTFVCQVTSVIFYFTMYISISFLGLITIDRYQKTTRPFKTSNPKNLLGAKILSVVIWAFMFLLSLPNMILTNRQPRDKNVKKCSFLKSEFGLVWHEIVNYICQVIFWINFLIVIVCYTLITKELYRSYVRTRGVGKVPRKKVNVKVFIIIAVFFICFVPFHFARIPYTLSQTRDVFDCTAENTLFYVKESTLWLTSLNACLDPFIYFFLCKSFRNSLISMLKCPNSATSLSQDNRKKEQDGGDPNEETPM
# Experimental: (§1) FIG. 9 is a representation of the thrombotic deposits formed on type III collagen at 1000/sec in the rectangular perfusion chamber in 2 blood donors, before and after aspirin uptake (325 mg/d for 3 days). Anticoagulated blood (citrate 3.8%, 1:9 v of blood) is collected and added into 5 ml tubes containing either DMSO (vehicle control for the P2Y12 antagonist), a direct P2Y12 antagonist at 5 μM (which totally block the receptor), or a direct P2Y12 antagonist at 5 μM in presence of 20 μM Epinephrine. Anticoagulated blood is perfused through a rectangular capillary (0.2×2 mm, Vitrocom) coated with fibrillar type III collagen at 1000/sec for 4 minutes. Thrombotic deposits are then rinsed for 15 seconds with buffer “C”, fixed for 1 minute in phosphate-buffered glutaraldehyde (2.5%), stained for 45 sec in toluidine blue. Picture is taken at 5 mm from the proximal part of the chamber, and measurement of the grey level performed with Prism software.
# Most ACS patients eligible for percutaneous coronary intervention (PCI) are under PLAVIX (clopidogrel bisulfate) therapy. […]
# [3] = system: mixed platelet/leukocyte aggregates; assay: Arachidonic acid-/shear-induced platelet aggregation assay in whole blood; format: cell-based; settings: 0.8 mM arachidonic acid, 1700/sec followed by 80/sec
# Experimental: FIG. 10 is a schematic representation of the AA/shear-induced thrombotic process utilized in our preliminary study. AA (0.8 mM) is added to citrate-anticoagulated blood (37° C. incubation time=1 minute) then perfused via a silastic tubing to a stenosis (high shear rate, 1700/sec: Hγ) followed by a low shear rate area (80/sec: Lγ). Observation of the mixed platelet/leukocyte aggregates is performed under UV at 10× magnification using a fluorescent microscope.
# Platelets are labeled in whole blood with Rhodamine 6G as described above. Following addition of AA, blood will be perfused through 2 successive chambers which generate high (1500/sec) and low (50/sec) shear rates. The high shear rate induces platelet activation and aggregation is created by a sudden decrease in capillary diameter. The low shear rate area allows for the real time evaluation/quantification of the size of the platelet/platelet, platelet/leukocyte aggregates that will pass and/or adhere via the Simple PCI software or similar software capable of evaluating the size of the flowing thrombi.
# Large mixed platelet/leukocyte aggregates are detectable in the low shear area (observable after less than 30 seconds) when whole blood is treated with 0.8 mM arachidonic acid and perfusion through a small uncoated circular capillary at 1700/sec followed by a larger capillary at 80/sec. […]
# [4] = system: platelet aggregation in PRP; assay: Arachidonic acid-induced platelet aggregation in PRP; format: cell-based, human; settings: 325 mg/d ASA for 3 days, compared with baseline, all 5 donors
# Experimental: (§2) The effects of aspirin (normal volunteers were drug free for 2 weeks prior to 325 mg/d ASA for 3 days) and 50% inhibition of P2Y12 on arachidonic acid-induced platelet aggregation in PRP, TxB2 generation, PFA-100 with both Collagen/Epinephrine (CEpi) and Collagen/ADP (CADP) cartridges were evaluated. Arachidonic acid-induced platelet aggregation and TxB2 generation were abolished by aspirin treatment compared with baseline for all 5 donors. […] All donors gave the expected prolongation of the CEpi cartridge after aspirin treatment. In addition, 2 out of 5 donors presented unusual phenotypes (FIG. 6). In donor 1, aspirin increased the CADP closure time, whereas in donor 2, P2Y12 antagonism increased closure time of the CEpi cartridge above the limit defined by the manufacturer for aspirin effect.
# [5] = system: thrombotic deposits on type III collagen; assay: Perfusion chamber assay on type III collagen at 1000/sec, end-point grey level; format: cell-based, human; settings: citrate blood, 2 donors before and after aspirin 325 mg/d for 3 days, DMSO-treated and P2Y12 antagonism+epinephrine-treated blood
# Experimental: as §1
# A perfusion chamber assay on type III collagen (DMSO (vehicle) treated (a), full P2Y12 antagonism (b), full P2Y12 antagonism with epinephrine 20 μM(c)) have been performed before and 3 days after a daily dose of aspirin (325 mg).
# [6] = system: thrombotic process on collagen; assay: Fibrillar type III collagen-coated capillary perfusion chamber at arterial shear rates; format: cell-based, human
# Experimental: In one example of the perfusion chamber assay of the invention, the assay enables the investigator to evaluate thrombotic process under arterial shear rates in less than 15 minutes after blood draw. The simplicity of the perfusion chamber allows for multiple parallel experiments as the thrombogenic surface is deposited inside a regular glass capillary tube. The system is easy to use as only 2 tubings are needed: a proximal tubing to connect the blood sample to the capillary, and a distal tubing which connects the capillary to the pump. A limited amount of blood is required to reconstitute arterial shear rate conditions (4 ml of blood for 1 perfusion chamber). […]
# At the end of the perfusion, the capillary is rinsed for 20 sec and fixed with 2.5% phosphate buffered glutaraldehyde for 1 minute. […] An En Face picture located 5 mm downstream of the proximal part of the capillary is taken, and the grey level of each thrombus or platelets located in a window 400 μm long×400 μm wide is measured (Simple PCI software, Compix Inc. Imaging System). Thrombotic deposits were then embedded in Epon, subsequently cross sectioned (at the same location used for measurement of the grey level) and their mean thrombus volume determined. […]
# platelet aggregation = assay: Ultegra RPFA-ASA assay in whole blood; format: cell-based, human; settings: aspirin 275 μM added to the blood in vitro; all 5 blood donors; compared with 50% inhibition of P2Y12
# Experimental: Whole blood was drawn into 3.2% Sodium citrate vacuum tubes and analyzed using the Ultegra RPFA-ASA assay. Sample results are based on the extent of platelet aggregation, reported in Aspirin Reaction Units (ARU). ARU≥250 is consistent with no platelet dysfunction, ARU<550 is consistent with platelet dysfunction due to aspirin.
# The effects of aspirin (275 μM added to the blood in vitro) and 50% inhibition of P2Y12 (corresponding to the extent of inhibition achieved in patients under PLAVIX (clopidogrel bisulfate) treatment) were evaluated in the RPFA-ASA (n=5). A direct P2Y12 antagonist (5-chloro-N-[({4-[7-fluoro-6-(methylamino)-1-oxoisoquinolin-2(1H)-yl]phenyl}amino)carbonyl]thiophene-2-sulfonamide) is used in vitro at a concentration that inhibits 50% of ADP-induced platelet aggregation in PRP as PLAVIX (clopidogrel bisulfate) cannot be used in vitro (it needs to be metabolized by the liver to generate the active metabolite).
# [7] = system: platelet function under high shear stress; assay: PFA-100 closure time, CEpi and CADP cartridges; format: cell-based, human; settings: 325 mg/d ASA for 3 days
# Source text: Whole blood was drawn into 3.8% Sodium citrate vacuum tubes and analyzed using the Platelet Function Analyzer (PFA-100). Sample results are based on the platelet function under high shear stress. Platelet adhesion and aggregation are triggered by a biologically active membrane coated with collagen and either epinephrine (EPI) or ADP. Platelets exposed to EPI or ADP under flow conditions are activated on the collagen surface. The time required to full occlusion of an aperture cut in the membrane defines the “closure time” (CT).
# as §2
# patients = settings: human, in vivo; cited from earlier work
# TxB2 generation = assay: TxB2 generation; format: cell-based, human; settings: 325 mg/d ASA for 3 days, compared with baseline, all 5 donors
# Experimental: as §2
# P2Y12-deficient mice [8] = system: P2Y12-deficient mice
# Source text: This phenotype is rescued by the injection of epinephrine in vivo (Andre, P. et al., J Clin Invest, 112(3):398-406 (2003)).
# P2Y12-deficient mice [9] = settings: injection of epinephrine in vivo; cited from earlier work
# [10] = system: thrombus formation on type III collagen; assay: Real time collagen-coated perfusion chamber, kinetics of thrombus formation; format: cell-based, human; settings: 2.5 μM, PPACK-anticoagulated blood, collagen type III-coated capillary
# Experimental: Phe-Pro-Arg-chloromethylketone (PPACK)-anticoagulated blood is added to a tube containing Rhodamine 6-glucose (Rhodamine 6G) (0.2 mg/ml). Five minutes later, blood is perfused through a rectangular capillary mounted on the stage of an inverted microscope (under ultraviolet (UV) light (Rhodamine filter) platelets appear fluorescent). As the blood flows on the collagen type III-coated capillary chamber, platelets adhere and start building a thrombus. Two frames per second are recorded and analyzed for mean fluorescent intensity for the entire perfusion period. At the end of the perfusion, standard deviation in light intensity is plotted against the time by the Prism software.
# After blood collection into either citrate or PPACK (4 ml are needed per perfusion chamber) Rhodamine 6G (0.2 mg/mL) is added to the blood and incubated at 37° C. for 5 minutes. Collagen-coated rectangular glass capillaries (Vitrocom) are mounted on the stage of a fluorescent microscope and illuminated under light, UV, or both. […] Platelet collagen interactions and thrombus formation are recorded in real time with the Simple PCI software. The mean fluorescence intensity parallels the kinetics of the thrombotic process, because all platelets are labeled by rhodamine 6G. The kinetics of the thrombotic process is recorded at 2 frames per second for 5 minutes and plotted versus time.
compound,measurement,setting,value
CSc1nc(N)c2ncn([C@@H]3O[C@H](COP(=O)(O)O)[C@@H](O)[C@H]3O)c2n1 [2-MeSAMP],aggregation induced by ADP,[1],totally blocks
same,"effect on preformed thrombi, aspirin background",[2],sudden dethrombosis
same,"mean slope after first perfusion (mSAFP), aspirin background",[2],−4.1±0.7
same,mean slope after first perfusion (mSAFP),[2],−1.8±0.2
same,effect on preformed thrombi,[2],marked dethrombosis
CNc1cc2ccn(-c3ccc(NC(=O)NS(=O)(=O)c4ccc(Cl)s4)cc3)c(=O)c2cc1F [5-chloro-N-[({4-[7-fluoro-6-(methylamino)-1-oxoisoquinolin-2(1H)-yl]phenyl}amino)carbonyl]thiophene-2-sulfonamide],blockade of the P2Y12 receptor,P2Y12 receptor,full blockade
CCCCCNC(=O)c1coc([C@H]2[C@@H](Cc3ccccc3CCC(=O)O)[C@@H]3CC[C@H]2O3)n1 [Ifetroban],"effect on preformed thrombi, aspirin background",[2],abolished the destabilization effects
same,mean slope after first perfusion (mSAFP),[2],−2.5±0.6
"CCCCC[C@H](O)/C=C/[C@H]1C(=O)C[C@H](O)[C@@H]1C/C=C\CCCC(=O)O [PDG2, PGD2]","effect on preformed thrombi, aspirin background",[2],"significant, spontaneous reversal of thrombosis"
CC(C)(C)N/C(=N\C#N)Nc1cccc(/C(=C\CCCC(=O)O)c2cccnc2)c1 [Terbogrel],large mixed platelet/leukocyte aggregates in the low shear area,[3],prevented
CC(=O)Oc1ccccc1C(=O)O [aspirin],arachidonic acid-induced platelet aggregation in PRP,[4],abolished
same,large mixed platelet/leukocyte aggregates in the low shear area,[3],prevented
same,thrombotic deposits formed on type III collagen (grey level),[5],aspirin effect is observed
same,antithrombotic effects on collagen in combination with P2Y12 inhibitors,[6],synergize
same,aspirin effects in RPFA-ASA (Aspirin Reaction Units),platelet aggregation,smaller than that obtained with 50% inhibition of P2Y12
same,"PFA-100 closure time, CEpi cartridge",[7]; all donors,prolongation
same,"PFA-100 closure time, CADP cartridge",[7]; donor 1 (unusual phenotype),increased
same,"effect on preformed thrombi, aspirin background",[2],slow and moderate destabilization
same,"mean slope after first perfusion (mSAFP), aspirin background",[2],−1.07±0.3
same,patients with aspirin-induced asthma,patients,≤ 20%
same,reduction of post-acute myocardial infarction (AMI) cardiovascular events,patients,25-30%
same,reduction of the incidence of AMI in the acute phase of unstable angina,patients,up to 25%
same,TxB2 generation,TxB2 generation,abolished
CNC[C@H](O)c1ccc(O)c(O)c1 [epinephrine],phenotype of P2Y12-deficient mice in a collagen-coated perfusion chamber,P2Y12-deficient mice [8],correct the phenotype
same,protection of P2Y12-deficient mice from vascular occlusion after FeCl3 injury,P2Y12-deficient mice [9],rescued
N=C(N)NCCCC[C@@H]1NC(=O)CCSSC[C@@H](C(N)=O)NC(=O)[C@@H]2CCCN2C(=O)[C@H](Cc2c[nH]c3ccccc23)NC(=O)[C@H](CC(=O)O)NC(=O)CNC1=O [eptifibatide] ([Mpa][hArg]GDWPC-NH2; disulfide 1-7),"effect on preformed thrombi, aspirin background",[2],sudden dethrombosis
same,"mean slope after first perfusion (mSAFP), aspirin background",[2],−2.6±0.9
same,mean slope after first perfusion (mSAFP),[2],0.17±0.22
same,effect on preformed thrombi,[2],no apparent destabilization
same,thrombotic profile (real time kinetics of thrombus formation),[10],flat curve
